Blank lines part the entries; values can stand above or below the compound they belong to.
Legend:
NO production = NO production by LPS-activated macrophages (Griess reaction); assay type: cell-based; details: RAW264.7 cells
Procedure: After RAW264.7 cells were cultured under the same conditions as in (2) with the media supplemented with DTCM glutarimide-C12 at concentrations (0, 0.1, 0.3, 1.0 and 3.0 μg/mL) for 2 hours, 3.0 μg/mL of LPS was added to the media and the cells were further cultured for 20 hours. Then, NO production amounts were measured by Griess reaction and plotted against the respective DTCM glutarimide-C12 concentrations (the bar graph in FIG. 4).

COX-2 = COX-2 expression in macrophage activation (Western blotting); assay type: cell-based; details: RAW264.7 cells, LPS
Procedure: RAW264.7 cells were activated under the same conditions as in (4), the cells were recovered, proteins were extracted from the cells in a routine method, and Western blotting was conducted using an anti-COX-2 antibody (BD Bioscience) and an anti-α-tubulin antibody (Sigma Aldrich Japan) at the dilution ratio of 1/3000.

NF-κB = experiment: DNA binding ability of NF-κB (gel shift assay); assay type: cell-based; details: RAW264.7 cells
Procedure: Next, under the same conditions as in (2) above, RAW264.7 cells were cultured with the media supplemented with DTCM glutarimide-C12 at concentrations (0, 0.1, 0.3, 1.0 and 3.0 μg/mL) for 2 hours, to which 3.0 μg/mL of LPS was added, and the cells were further cultured for 30 minutes. Then, nuclear extracts were prepared by a routine method, and a gel shift assay was conducted with using 3 μL of a ^32P-labeled probe.
The probe was prepared as follows. First, 4 μL of 1.75 μmol/mL oligonucleotide (Promega Inc.) (5′-[…]-3′; SEQ ID N0.1), 4 μL of 10×T4 PNK buffer (Takara) and 10 μL of nucleotide free water were mixed, to which 2 μL of [γ-^32P]-ATP (Amarsham Corp.) was added, and incubated at 37° C. for 10 minutes. The reaction was then terminated by addition of 80 μL of TE buffer (10 mM Tris-HCl:1 mM EDTA=1:1). 100 μL of the reaction solution was loaded onto a Nick Column (Amersham Corp.) which had been prepared by removing the filled TE buffer and washing with distilled water, 400 μL of distilled water was loaded, and the eluate from the column was recovered in a 1.5 mL Eppendorf tube. Additional 400 μL of distilled water was loaded, and the fraction eluted again from the column was recovered in the 1.5 mL Eppendorf tube. The elute thus obtained was used as the labeled DNA probe. […]

IL-6 = IL-6 production by macrophage activation (ELISA); assay type: cell-based; details: RAW264.7 cells, LPS
Procedure: RAW264.7 cells were activated under the same conditions as in (4), the cells were recovered, proteins were extracted from the cells by a routine method. An ELISA was conducted using 96-well polystyrene microplates onto which the anti-IL-6 antibody had been immobilized. […] The detected concentrations of IL-6 per 10^6 cells were plotted in FIG. 9.

iNOS = iNOS expression in macrophage activation (Western blotting); assay type: cell-based; details: RAW264.7 cells, LPS
Procedure: RAW264.7 cells were activated under the same conditions as in (4), the cells were recovered and proteins were extracted from the cells by a routine method. Western blotting was conducted, using an anti-iNOS antibody (Santa Cruz Biotechnology) and an anti-α-tubulin antibody (Sigma Aldrich Japan) at the dilution ratio of 1/3000.

RAW264.7 cells [1] = experiment: Cytotoxicity on RAW264.7 cells: cell survival rate (trypan blue) and total cell number; assay type: cell-based; details: after 48 hours
Procedure: In this example, cytotoxicity of DTCM glutarimide on RAW264.7 cells was evaluated, based on cell survival rate and cell growth rate.
The RAW264.7 cells were seeded on plastic dishes at 1×10^4 cells/ml in DMEM medium containing 10% FBS, to which DTCM glutarimide-C12 was added at the concentration of 0, 0.1, 0.3, 1.0, 3.0 or 10.0 μg/mL to the media. After 24 hours or 48 hours of culture, numbers of total cells were counted using hemacytometer, and numbers of living cells were counted using trypan blue dye exclusion assay.

RAW264.7 cells [2] = experiment: Living cell count by MTT method in LPS-stimulated cells; assay type: cell-based; details: all concentrations 0.1-3.0 μg/mL, 20 hours
F9 cells = experiment: Survival rate and growth of F9 cancer cells; assay type: cell-based, murine
Procedure: F9 cells derived from murine embryonic tumor cells (purchased from RIKEN Tsukuba Institute BioResource Center, Cell Engineering Division) were plated onto plastic dishes at 1×10^4 cell/mL in DMEM medium containing 15% FBS. DTCM glutarimide-C12 was then added at the concentration of 0, 0.1, 0.3, 1.0, 3.0, 10.0 or 30.0 μg/mL in the culture media, and were cultured for 24, 48 or 72 hours. By following the same method as described in “Measurement of Cell Survival Rate by Trypan Blue Staining” in Example (10), the survival rates of cells were measured. Also, suspensions of the cultured cells were similarly prepared and the numbers of cells in the suspensions were counted by Coulter Counter (Beckman Coulter Inc.) to evaluate cell growth.

RAW264.7 cells [3] = experiment: Inhibition of synthesis of DNA, RNA and protein (3H-thymidine, uridine, leucine incorporation); assay type: cell-based; details: concentrations up to 10.0 μg/mL, 6 hours + 1 hour label
Procedure: In this example, the cytotoxicity of DTCM glutarimide on RAW264.7 cells was evaluated, based on the inhibition of synthesis of DNA, RNA and protein.
After RAW264.7 cells were cultured under the same conditions as in (2) with the media supplemented with DTCM glutarimide-C12 at concentrations (0, 0.1, 0.3, 1.0, 3.0 and 10.0 μg/mL) for 6 hours, ^3H-labeled 0.1% thymidine, 0.1% uridine and 0.1% leucine were added to the media and the cells were further cultured for 1 hour. The cells were recovered and radioactivity of TCA-insoluble fractions was measured by using a liquid scintillation counter. The counts obtained at the DTCM glutarimide-C12 concentrations were normalized by setting to 100 the count obtained without addition of DTCM glutarimide-C12 in a control experiment and relatively plotted in the graph shown in FIG. 3.

[4] = test system: murine bone marrow-derived macrophages; experiment: Toxicity on murine bone marrow-derived macrophages (trypan blue dye exclusion); assay type: cell-based, mouse
Procedure: An 8 week-old ICR mouse (male, purchased from Charles River) sacrificed by cervical dislocation was dissected under sterile conditions to isolate femora and […] from both legs. Medullary cavities were washed with α-MEM several times using a 21G needle attached to a 1 mL syringe. The fluid (α-MEM) after washing was filtrated through a nylon mesh (330 mesh) to remove unnecessary cells, and myelocytes were isolated. The myelocyte suspension in α-MEM thus obtained was diluted to 1.25 to 3.75×10^6 cell/mL. To 80 mL of the myelocyte suspension, 80 μL of hM-CSF (Wako Pure Chemical) at 10 μg/mL prepared with PBS containing 0.1% BSA was added (final concentration 10 ng/mL). The cells thus prepared were seeded onto 24-well plates (Corning Inc.) by 500 μL to 1 mL per well, and cultured at 37° C. under 5% CO2 for 2 days. Then, unattached cells were washed away with α-MEM, fresh α-MEM containing 10 ng/mL of hM-CSF was added, and the attached cells thus obtained were used as the murine bone marrow-derived macrophages.
The murine bone marrow-derived macrophages thus prepared were seeded onto 24-well plates (Corning Inc.) by 1 mL each (1.25 to 3.75×10^6 cell/mL). To each of the wells, DTCM glutarimide-C12 at respective concentrations of 1.0, 3.0, 10.0 and 30.0 μg/mL was added, and all the experimental groups were cultured at 37° C. under 5% CO2. The control group was cultured under the same condition but without addition of DTCM glutarimide-C12.
The cells in the experimental groups were detached using a cell scraper and dissolved in α-MEM at 24 hours, 48 hours and 72 hours after the addition of DTCM glutarimide-C12. Then 1 mL of the cell suspensions were recovered in fresh Eppendorf tubes. […] 10 μL of the cell suspensions was put onto a hemacytometer (Erma Inc.) and total cells and dead cells were counted under a microscope at 100× magnification. In hemacytometric counting, approximately 100 cells were counted per one visual field, and the cell survival rates obtained in four visual fields were averaged. The cell survival rate (%) was calculated according to the following formula. […]

[5] = test system: murine bone marrow-derived macrophages; experiment: RANKL-induced osteoclast differentiation of murine bone marrow-derived macrophages (TRAP staining); assay type: cell-based, mouse; details: 0.3, 1.0 and 3.0 μg/mL, RANKL 100 ng/mL, 5 days
Procedure: The primary murine bone marrow-derived macrophages prepared in Example (10) were plated onto 24-well plates (Corning Inc.) by 500 μL each (1.25 to 3.75×10^6 cell/mL). Then 5 μL of DTCM glutarimide-C12 was added to each of the wells to the final concentrations of 0, 0.3, 1.0 and 3.0 μg/mL. All the experimental groups of plates were cultured at 37° C. under 5% CO2 for 2 hours. hRANKL (Wako Pure Chemical) at 10 μg/mL prepared in PBS containing 0.1% BSA was then added by 5 μL each (final concentration 100 ng/mL), and culture was continued. RANKL has been known as a factor to induce osteoclasts differentiation of macrophages etc. (Kobayashi et al. Crit. Rev Eukaryot Gene Expr. 19(1), 61-72, 2009). The control group of plates was cultured under the same condition but without RANKL and DTCM glutarimide.
After 5 days of culture, the media were removed, and the cells were washed by PBS. 250 μL each of 3.5% paraformaldehyde was added to the wells to fix the cells for 5 minutes, and the fixative was washed away with PBS. […] Following an addition of 250 μL of PBS, the plates were observed under a microscope and the number of mature osteoclasts was counted in the entire visual field by regarding TRAP-positive cell having three or more fused nuclei as the mature osteoclast as it is known to be TRAP-positive.

[6] = 0.1-3.0 μg/mL, 2 hours pretreatment, LPS 3.0 μg/mL, 20 hours
[7] = 10 μg/mL, positive control, LPS

SMILES: CCCCCCSC(=O)CC1CC(=O)NC(=O)C1 [DTCM glutarimide-C6]
NO production (NO production; [6]): suppresses NO production
NO production (NO production; 0.1-3.0 μg/mL, 2 hours pretreatment, LPS 3.0 μg/mL, 20 hours, listed as DTCM glutarimide-C16): almost the same results

activity of NF-κB (DNA binding) (NF-κB; [7]): the activity of NF-κB is suppressed
SMILES: O=C(NC1=CC(=O)[C@H]2O[C@H]2[C@H]1O)c1ccccc1O [(−)-DHMEQ, reference compound]
COX-2 expression (COX-2; 10 μg/mL, positive control): COX-2 expression is suppressed
NO production (NO production; [7]): NO expression is suppressed
IL-6 production (IL-6; 10 μg/mL, positive control): IL-6 production is suppressed
iNOS expression (iNOS; 10 μg/mL, control): iNOS expression is suppressed

SMILES: CCCCCCCCCCCCSC(=O)CC1CC(=O)NC(=O)C1 [DTCM glutarimide-C12]
COX-2 expression (COX-2; 0.1-3.0 μg/mL): prominently suppressed this COX-2 expression in a concentration-dependent manner
total cell number (cell growth) (RAW264.7 cells [1]; concentrations up to 1.0 μg/mL): no suppression of cell growth was detected
cell survival rate (living cell number/total cell number) (RAW264.7 cells [1]; concentrations up to 3.0 μg/mL): no cell killing effect was detected
NO production (NO production; [6]): significantly suppressed this NO production in a concentration-dependent manner
DNA binding ability of NF-κB (NF-κB; concentrations below 3.0 μg/mL, LPS 30 minutes): did not suppress the DNA binding ability of NF-κB
numbers of living cells (MTT), cell growth (RAW264.7 cells [2]): did not affect the cell growth
IL-6 production (IL-6; concentrations below 3.0 μg/mL): did not affect this IL-6 production
cell survival rate of F9 cells (F9 cells; 0.1-30.0 μg/mL, 24, 48 or 72 hours, depending on concentration): significantly reduced
cell growth of F9 cells (F9 cells; 0.1-30.0 μg/mL, 24-72 hours, versus group without addition): suppressed
cell survival rate of F9 cells, 72-hour versus 24-hour and 48-hour culturing (F9 cells; 10 or 30 μg/mL): significantly reduced cell survival rate
inhibition of synthesis of DNA, RNA and protein (RAW264.7 cells [3]): no significant inhibitory activity
iNOS expression (iNOS; 0.1-3.0 μg/mL): prominently suppressed this iNOS expression in a concentration-dependent manner
survival rate ([4]; 3.0 μL groups, regardless of culture time (24, 48, 72 hours)): more than 80%
survival rate ([4]; 10.0 and 30.0 μg/mL groups, regardless of culture time): reduced
toxicity on murine myelocyte-derived macrophages ([4]; concentrations up to 3.0 μL): does not exhibit toxicity
number of osteoclasts [5]: significantly reduced

— US8524747B2, “Pharmaceutical compositions” (Keio University, priority 2008, dated 2013)
